Patent US20260191835A1, “COMBINATIONS COMPRISING A MENIN-MLL INHIBITOR AND AT LEAST ONE OTHER THERAPEUTIC AGENT” (JANSSEN PHARMACEUTICA NV, priority 2022, published 2026)

Tested on: MOLM-13 tumors
Assay: Efficacy (survival) in disseminated MOLM-13 (KMT2A-rearranged) model in NSG mice
Type: in vivo
Conditions: NSG mice bearing established MOLM-13 tumors, vs vehicle; Azacitidine 2 mg/kg ip QD × 7; Compound 51 2 mg/kg po QD × 28; n = 10
Description: 4) Efficacy of Menin-MLL Inhibitor in Combination with Azacitidine in MOLM-13 (KMT2A-Rearranged) Model in NSG Mice
Compound 51 was formulated in purified pyrogen-free deionized water, pH 4.0 and prepared to reach a total volume of 8 mL/kg. Doses were adjusted by individual body weight each day. Working stocks of Compound 51 were prepared once per week for each study and stored at 25° C.
Female NSG (NOD.Cg-Prkdc^scid Il2rg^tm1Wjl/SzJ) mice were used when they were approximately 6 to 8 weeks of age and weighed approximately 25 g. All animals could acclimate and recover from any shipping-related stress for a minimum of 7 days prior to experimental use. […]
Animals were monitored daily for clinical signs related to either compound toxicity or tumor burden (i.e., hind limb paralysis, lethargy, etc.).
For survival assessment, results were plotted as the percentage survival against days post tumor implant. […] Median survival was determined utilizing Kaplan-Meier survival analysis. The percent increased life span (ILS) was calculated as: ((median survival day of treated group−median survival day of control group)/median survival day of control group)×100. […]
Survival and body weight data were graphically represented utilizing Prism (Version 9). Statistical significance for body weights was evaluated as described above. […]

CC(=O)N1CCC(CN2CC[C@@H](Cc3cn(-c4ccc(F)cc4C(=O)N(C)C(C)C)c4cncc(C)c34)C2)CC1 [Compound 51]
% ILS (increased life span): *5%
